In brackets after ≈: the same amount, converted by molar mass. Where two headings read alike, the source gives them in different places.
Assays:
[1] = test system: Staphylococcus aureus ATCC 21027; experiment: Antimicrobial assay, growth inhibition (optical density); assay type: cell-based; details: Staphylococcus aureus, ATCC21027; S. aureus; read-out: total inhibition (MIC100) of growth
Description: (§1) The Gram-positive bacterial Staphylococcus aureus ATCC 21027, Gram-negative bacterial Escherichia coli VKPM (B-7935), and yeast-like fungal Candida albicans KMM 455 strains were fermented on solid medium Mueller Hinton broth with agar (16.0 g/L) in a Petri dish at 37 °C for 24 h. The antimicrobial activity of the compound was tested at concentrations ranging from 100 µM and lower. The effect of the compound on bacterial growth was estimated as described by. Gentamicin and amphotericin B were used as positive controls against S. aureus, E. coli, and C. albicans, and a 1% dimethyl sulfoxide (DMSO) solution in PBS was used as a negative control. The optical density of the bacterial suspension after 18 h was measured at λ = 620 nm. The effect of the compound on biofilm formation for 18 h was tested using MTT reagent (Sigma-Aldrich, St. Louis, MO, USA) in accordance with. The optical density of the obtained solution was measured at λ = 570 nm. A Multiskan FS spectrophotometer (Thermo Scientific Inc., Beverly, MA, USA) was used for both assays. The results were calculated as percentages of the control data and presented as minimal concentrations reduced by 50% of growth or biofilm formation (MIC50).

[2] = test system: Escherichia coli VKPM (B-7935); experiment: as above; assay type: cell-based; details: Escherichia coli; E. coli; read-out: total inhibition (MIC100) of growth
Description: as §1

Candida albicans KMM 455 [3] = experiment: as above; assay type: cell-based; details: Candida albicans, C. albicans
Description: as §1

[4] = Cell viability assay (MTT); assay type: cell-based, rat; details: rat, H9c2 cardiomyocytes, read-out: Cytotoxicity IC50
From the text: (§2) Rat cardiomyocyte H9c2 cells were kindly provided by Prof. Dr. Gunhild von Amsberg from the Martini-Klinik Prostate Cancer Center, University Hospital Hamburg-Eppendorf, Hamburg, Germany. The human HaCaT keratinocyte cell line was kindly provided by Prof. N. Fusenig (Cancer Research Centre, Heidelberg, Germany). Non-cancerous human breast epithelial MCF-10A cells were kindly provided by Dr. Irina Zhitnyak (N. N. Blokhin National Medical Research Center of Oncology, Moscow, Russia). Human breast cancer MCF-7 HTB-22 and MDA-MB-231 cells were obtained from the ATTC (Manassas, VA, USA).
(§3) H9c2 and HaCaT cells were cultured in DMEM with 10% fetal bovine serum and 1% penicillin/streptomycin (BioloT, St. Petersburg, Russia). MCF-7 and MDA-MB-231 cells were cultured in MEM (BioloT, St. Petersburg, Russia) with 10% fetal bovine serum (FBS) and 1% penicillin/streptomycin (BioloT, St. Petersburg, Russia). MCF 10A cells were cultured in DMEM F12 medium (BioloT, St. Petersburg, Russia) supplemented with 20% FBS, 20 ng/mL hrEGF (Sci-Store, Moscow, Russia), and 1% penicillin/streptomycin (BioloT, St. Petersburg, Russia). All cells were cultured at 37 °C in a humidified atmosphere containing 5% CO2.
(§4) H9c2 cells were seeded at a concentration of 3 × 10^3 cells/well. MCF-10A, MCF-7, and MDA-MB-231 cells were seeded at 5 × 10^3 cells/well, and HaCaT cells were seeded at 1 × 10^4 cells/well. The experiments were initiated after 24 h.
(§5) Compounds at concentrations up to 100 µM were added to the wells for 24h or 48 h, and the viability of the cells was measured using an MTT (3-(4,5-dimethylthiazol-2-yl)-2,5-diphenyltetrazolium bromide) assay, which was performed according to the manufacturer’s instructions (Sigma-Aldrich, Munich, Germany). […] DMSO was used as a control. The results are presented as percentages of the control data.

H9c2 cardiomyocytes = experiment: Cell viability assay (MTT); assay type: cell-based, rat
From the text: as §2, §3, §4, §5

[5] = test system: Staphylococcus aureus ATCC 21027; experiment: Biofilm formation assay (MTT); assay type: cell-based; details: S. aureus
Description: as §1

[6] = test system: Escherichia coli VKPM (B-7935); experiment: Biofilm formation assay (MTT); assay type: cell-based; details: E. coli
Description: as §1

Candida albicans KMM 455 [7] = experiment: Biofilm formation assay (MTT); assay type: cell-based; details: C. albicans
Description: as §1

[8] = test system: MCF-10A breast epithelial cells; experiment: Cell viability assay (MTT); assay type: cell-based, human; details: MCF10A
From the text: as §2, §3, §4, §5

HaCaT keratinocytes = experiment: Cell viability assay (MTT); assay type: cell-based, human
From the text: as §2, §3, §4, §5

[9] = Cell viability assay (MTT); assay type: cell-based, human; details: human, read-out: Cytotoxicity IC50
From the text: as §2, §3, §4, §5

[10] = test system: MDA-MB-231 breast cancer cells; experiment: Cell viability assay (MTT); assay type: cell-based, human
From the text: as §2, §3, §4, §5

[11] = test system: MCF-7 breast cancer cells; experiment: Cell viability assay (MTT); assay type: cell-based, human
From the text: as §2, §3, §4, §5

E. coli = test system: E. coli; set-up: method as in PMID 28498358; details: cited from earlier work

Compound `C=C(C)C1CCC23C(O)CCC(C)C2(C)CCC(C)C3C1c1c[nH]c2ccccc12` (stereo not drawn) [Compound 5, 10,23-dihydro-24,25-dehydroaflavinine] has an MIC [1] of 6.85 ± 0.53 µM (≈ 2.78 µg/mL), an MIC [2] of 12.4 ± 1.02 µM (≈ 5.05 µg/mL) and an MIC50 (Candida albicans KMM 455 [3]; KMM455, 18 h, 18 h) of 7 to 10 µM (≈ 2.84 to 4.06 µg/mL). For the same compound, the MIC (Candida albicans KMM 455 [3]; KMM455, read-out: total inhibition (MIC100) of growth) was 11.5 ± 0.9 µM (≈ 4.66 µg/mL), the IC50 at 24 h ([4]; H9c2, 24 h) was 9.8 ± 1.3 µM and the IC50 at 48 h ([4]; H9c2, 48 h) was 57.2 ± 3 µM. The cell viability (H9c2 cardiomyocytes; H9c2, 24 h, 1.0 µM) was 101.9 ± 2.9 % of control, the cell viability (H9c2 cardiomyocytes; H9c2, 24 h, 10.0 µM) was 50.5 ± 1.8 % of control and the cell viability (H9c2 cardiomyocytes; H9c2, 24 h, 100.0 µM) was 33.6 ± 0.3 % of control. The cell viability (H9c2 cardiomyocytes; H9c2, 48 h, 1.0 µM) was 105.6 ± 3.4 % of control, the cell viability (H9c2 cardiomyocytes; H9c2, 48 h, 10.0 µM) was 94.0 ± 3.0 % of control and the cell viability (H9c2 cardiomyocytes; H9c2, 48 h, 100.0 µM) was 10.1 ± 0.2 % of control. For the same compound, the “MIC100 of biofilm formation” value [5] was 10.45 ± 0.96 µM, the “MIC100 of biofilm formation” value [6] was 23.08 ± 2.00 µM and the “MIC100 of biofilm formation” value (Candida albicans KMM 455 [7]) was 12.01 ± 1.01 µM. For the same compound, the cell viability ([8]; 24 h, 1.0 µM) was 101.7 ± 4.4 % of control, the cell viability ([8]; 24 h, 10.0 µM) was 95.4 ± 2.3 % of control and the cell viability ([8]; 24 h, 100.0 µM) was 16.1 ± 8.6 % of control. The cell viability ([8]; 48 h, 1.0 µM) was 92.0 ± 0.9 % of control, the cell viability ([8]; 48 h, 10.0 µM) was 93.9 ± 6.4 % of control and the cell viability ([8]; 48 h, 100.0 µM) was 9.9 ± 0.2 % of control. For the same compound, the cell viability (HaCaT keratinocytes; 24 h, 1.0 µM) was 92.3 ± 5.0 % of control, the cell viability (HaCaT keratinocytes; 24 h, 10.0 µM) was 88.3 ± 8.6 % of control and the cell viability (HaCaT keratinocytes; 24 h, 100.0 µM) was 7.8 ± 0.3 % of control. The cell viability (HaCaT keratinocytes; 48 h, 1.0 µM) was 72.2 ± 4.3 % of control, the cell viability (HaCaT keratinocytes; 48 h, 10.0 µM) was 56.8 ± 4.8 % of control and the cell viability (HaCaT keratinocytes; 48 h, 100.0 µM) was 16.8 ± 0.2 % of control. It also gave an IC50 at 24 h ([9]; HaCaT keratinocytes, 24 h) of 52.8 ± 1.1 µM, an IC50 at 48 h ([9]; HaCaT keratinocytes, 48 h) of 25.3 ± 0.8 µM and an IC50 at 24 h ([9]; MCF-7 breast cancer cells, MCF-7, 24 h) of 58.6 ± 4.2 µM. For the same compound, the IC50 at 48 h ([9]; MCF-7 breast cancer cells, MCF-7, 48 h) was 53.5 ± 1.1 µM, the IC50 at 24 h ([9]; MCF-10A breast epithelial cells, MCF10A, 24 h) was 61.5 ± 1.3 µM and the IC50 at 48 h ([9]; MCF-10A breast epithelial cells, MCF10A, 48 h) was 57.1 ± 2.8 µM. For the same compound, the IC50 at 24 h ([9]; MDA-MB-231 breast cancer cells, MDA-MB-231, 24 h) was 62.9 ± 3.1 µM, the IC50 at 48 h ([9]; MDA-MB-231 breast cancer cells, MDA-MB-231, 48 h) was 61.3 ± 2.1 µM and the cell viability ([10]; MDA-MB-231, 24 h, 1.0 µM) was 96.3 ± 7.5 % of control. The cell viability ([10]; MDA-MB-231, 24 h, 10.0 µM) was 91.3 ± 6.1 % of control, the cell viability ([10]; MDA-MB-231, 24 h, 100.0 µM) was 21.1 ± 0.9 % of control and the cell viability ([10]; MDA-MB-231, 48 h, 1.0 µM) was 103.2 ± 2.4 % of control. For the same compound, the cell viability ([10]; MDA-MB-231, 48 h, 10.0 µM) was 102.3 ± 4.1 % of control, the cell viability ([10]; MDA-MB-231, 48 h, 100.0 µM) was 10.6 ± 0.2 % of control and the cell viability ([11]; MCF-7, 24 h, 1.0 µM) was 100.5 ± 0.9 % of control. For the same compound, the cell viability ([11]; MCF-7, 24 h, 10.0 µM) was 97.0 ± 2.6 % of control, the cell viability ([11]; MCF-7, 24 h, 100.0 µM) was 10.0 ± 1.0 % of control and the cell viability ([11]; MCF-7, 48 h, 1.0 µM) was 78.5 ± 9.9 % of control. For the same compound, the cell viability ([11]; MCF-7, 48 h, 10.0 µM) was 81.6 ± 3.3 % of control, the cell viability ([11]; MCF-7, 48 h, 100.0 µM) was 21.2 ± 0.1 % of control and the MIC50 (E. coli) was 2.0 mg/L (≈ 4.93 µM).
